Experimental data reported in PubChem BioAssay (NCI).
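48-hour exposure; five concentrations; linearly interpolated endpoints. TGI: total growth inhibition.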

Experiments:
Assay in all cases: NCI tumour cell line growth inhibition, 48 h
OVCAR-4 ovarian = tested on: OVCAR-4 ovarian
DMS 114 small cell lung = tested on: DMS 114 small cell lung
NCI-H460 lung = tested on: NCI-H460 lung
KM20L2 colon = tested on: KM20L2 colon
M14 melanoma = tested on: M14 melanoma
SF-539 CNS = tested on: SF-539 CNS
U251 CNS = tested on: U251 CNS
RXF 393 renal = tested on: RXF 393 renal
SF-268 CNS = tested on: SF-268 CNS
SNB-19 CNS = tested on: SNB-19 CNS
HCC-2998 colon = tested on: HCC-2998 colon
UACC-257 melanoma = tested on: UACC-257 melanoma
KM12 colon = tested on: KM12 colon
M19-MEL melanoma = tested on: M19-MEL melanoma
SW-620 colon = tested on: SW-620 colon
EKVX NSCLC = tested on: EKVX NSCLC
K-562 leukemia = tested on: K-562 leukemia
HL-60(TB) leukemia = tested on: HL-60(TB) leukemia
SK-MEL-5 melanoma = tested on: SK-MEL-5 melanoma
OVCAR-5 ovarian = tested on: OVCAR-5 ovarian
RPMI-8226 leukemia = tested on: RPMI-8226 leukemia
SNB-75 CNS = tested on: SNB-75 CNS
SN12C renal = tested on: SN12C renal
NCI-H226 lung = tested on: NCI-H226 lung
HCT-15 colon = tested on: HCT-15 colon
OVCAR-3 ovarian = tested on: OVCAR-3 ovarian
IGROV1 ovarian = tested on: IGROV1 ovarian
LOX IMVI melanoma = tested on: LOX IMVI melanoma
HCT-116 colon = tested on: HCT-116 colon
HOP-18 NSCLC = tested on: HOP-18 NSCLC
786-0 renal = tested on: 786-0 renal
XF 498 CNS = tested on: XF 498 CNS
CCRF-CEM leukemia = tested on: CCRF-CEM leukemia
A549 NSCLC = tested on: A549 NSCLC
NCI-H23 lung = tested on: NCI-H23 lung
DLD-1 colon = tested on: DLD-1 colon
SF-295 CNS = tested on: SF-295 CNS
SNB-78 CNS = tested on: SNB-78 CNS
OVCAR-8 ovarian = tested on: OVCAR-8 ovarian
COLO 205 colon = tested on: COLO 205 colon
MALME-3M melanoma = tested on: MALME-3M melanoma
NCI-H522 lung = tested on: NCI-H522 lung
HOP-92 NSCLC = tested on: HOP-92 NSCLC
SK-MEL-2 melanoma = tested on: SK-MEL-2 melanoma
HOP-62 NSCLC = tested on: HOP-62 NSCLC
LXFL 529 NSCLC = tested on: LXFL 529 NSCLC
TK-10 renal = tested on: TK-10 renal
MOLT-4 leukemia = tested on: MOLT-4 leukemia
SK-OV-3 ovarian = tested on: SK-OV-3 ovarian
A498 renal = tested on: A498 renal
UACC-62 melanoma = tested on: UACC-62 melanoma
CAKI-1 renal = tested on: CAKI-1 renal
HT29 colon = tested on: HT29 colon
DMS 273 small cell lung = tested on: DMS 273 small cell lung
UO-31 renal = tested on: UO-31 renal
SN12K1 renal = tested on: SN12K1 renal
MCF7 breast = tested on: MCF7 breast
NCI/ADR-RES ovarian = tested on: NCI/ADR-RES ovarian
P388 leukemia = tested on: P388 leukemia
SK-MEL-28 melanoma = tested on: SK-MEL-28 melanoma
HS 578T breast = tested on: HS 578T breast
SR leukemia = tested on: SR leukemia
DU-145 prostate = tested on: DU-145 prostate
PC-3 prostate = tested on: PC-3 prostate
MDA-MB-435 = tested on: MDA-MB-435
ACHN renal = tested on: ACHN renal
MDA-N = tested on: MDA-N
BT-549 breast = tested on: BT-549 breast

CCOC(=O)/C(C#N)=C/c1[nH]c(C)c(C)c1C
TGI (OVCAR-4 ovarian): > 100 µM | TGI (DMS 114 small cell lung): > 100 µM | TGI (NCI-H460 lung): > 100 µM | TGI (KM20L2 colon): > 100 µM | TGI (M14 melanoma): > 100 µM | TGI (SF-539 CNS): > 100 µM | TGI (U251 CNS): > 100 µM | TGI (RXF 393 renal): > 100 µM | TGI (SF-268 CNS): > 100 µM | TGI (SNB-19 CNS): > 100 µM | TGI (HCC-2998 colon): > 100 µM | TGI (UACC-257 melanoma): > 100 µM | TGI (KM12 colon): > 100 µM | TGI (M19-MEL melanoma): > 100 µM | TGI (SW-620 colon): > 100 µM | TGI (EKVX NSCLC): > 100 µM | TGI (K-562 leukemia): > 100 µM | TGI (HL-60(TB) leukemia): > 100 µM | TGI (SK-MEL-5 melanoma): > 100 µM | TGI (OVCAR-5 ovarian): > 100 µM | TGI (RPMI-8226 leukemia): > 100 µM | TGI (SNB-75 CNS): > 100 µM | TGI (SN12C renal): > 100 µM | TGI (NCI-H226 lung): > 100 µM | TGI (HCT-15 colon): > 100 µM | TGI (OVCAR-3 ovarian): > 100 µM | TGI (IGROV1 ovarian): > 100 µM | TGI (LOX IMVI melanoma): > 100 µM | TGI (HCT-116 colon): > 100 µM | TGI (HOP-18 NSCLC): > 100 µM | TGI (786-0 renal): > 100 µM | TGI (XF 498 CNS): > 100 µM | TGI (CCRF-CEM leukemia): > 100 µM | TGI (A549 NSCLC): > 100 µM | TGI (NCI-H23 lung): > 100 µM | TGI (DLD-1 colon): > 100 µM | TGI (SF-295 CNS): > 100 µM | TGI (SNB-78 CNS): > 100 µM | TGI (OVCAR-8 ovarian): > 100 µM | TGI (COLO 205 colon): > 100 µM | TGI (MALME-3M melanoma): > 100 µM | TGI (NCI-H522 lung): > 100 µM | TGI (HOP-92 NSCLC): > 100 µM | TGI (SK-MEL-2 melanoma): > 100 µM | TGI (HOP-62 NSCLC): > 100 µM | TGI (LXFL 529 NSCLC): > 100 µM | TGI (TK-10 renal): > 100 µM | TGI (MOLT-4 leukemia): > 100 µM | TGI (SK-OV-3 ovarian): > 100 µM | TGI (A498 renal): > 100 µM | TGI (UACC-62 melanoma): > 100 µM | TGI (CAKI-1 renal): > 100 µM | TGI (HT29 colon): > 100 µM | TGI (DMS 273 small cell lung): > 100 µM | TGI (UO-31 renal): > 100 µM

O=[N+]([O-])c1cnccc1-n1nnc2ccccc21
TGI (OVCAR-4 ovarian): > 60.5 µM | TGI (DMS 114 small cell lung): 26.6 µM | TGI (NCI-H460 lung): > 87 µM | TGI (KM20L2 colon): > 100 µM | TGI (SF-539 CNS): 45.8 µM | TGI (U251 CNS): > 81.8 µM | TGI (RXF 393 renal): 46.8 µM | TGI (SF-268 CNS): > 62.3 µM | TGI (SNB-19 CNS): > 100 µM | TGI (HCC-2998 colon): 51.6 µM | TGI (UACC-257 melanoma): 51.4 µM | TGI (KM12 colon): 40.7 µM | TGI (M19-MEL melanoma): 49.6 µM | TGI (SW-620 colon): 52 µM | TGI (SN12K1 renal): > 95.5 µM | TGI (EKVX NSCLC): 90.6 µM | TGI (K-562 leukemia): > 100 µM | TGI (HL-60(TB) leukemia): > 54.7 µM | TGI (SK-MEL-5 melanoma): 33.3 µM | TGI (OVCAR-5 ovarian): 73.4 µM | TGI (RPMI-8226 leukemia): > 100 µM | TGI (SNB-75 CNS): 54.1 µM | TGI (SN12C renal): 37.7 µM | TGI (NCI-H226 lung): 49.8 µM | TGI (HCT-15 colon): 66.1 µM | TGI (OVCAR-3 ovarian): > 31.6 µM | TGI (IGROV1 ovarian): 47.6 µM | TGI (MCF7 breast): 36.5 µM | TGI (LOX IMVI melanoma): 32.8 µM | TGI (HCT-116 colon): > 100 µM | TGI (HOP-18 NSCLC): > 100 µM | TGI (XF 498 CNS): 27.1 µM | TGI (CCRF-CEM leukemia): > 86.5 µM | TGI (A549 NSCLC): > 90.1 µM | TGI (NCI-H23 lung): > 62 µM | TGI (DLD-1 colon): > 96.6 µM | TGI (NCI/ADR-RES ovarian): 63.4 µM | TGI (SF-295 CNS): > 74.7 µM | TGI (SNB-78 CNS): > 100 µM | TGI (OVCAR-8 ovarian): 50.8 µM | TGI (COLO 205 colon): 72.8 µM | TGI (MALME-3M melanoma): 45.5 µM | TGI (NCI-H522 lung): 38.5 µM | TGI (HOP-92 NSCLC): > 71.1 µM | TGI (SK-MEL-2 melanoma): 35.8 µM | TGI (HOP-62 NSCLC): 59.3 µM | TGI (MOLT-4 leukemia): > 75.7 µM | TGI (SK-OV-3 ovarian): 56.6 µM | TGI (P388 leukemia): 30.3 µM | TGI (A498 renal): 92.1 µM | TGI (SK-MEL-28 melanoma): 48.4 µM | TGI (UACC-62 melanoma): 33.4 µM | TGI (HT29 colon): > 100 µM | TGI (DMS 273 small cell lung): 27.2 µM | TGI (UO-31 renal): > 86.2 µM

COc1ccc(/C=C2\CCC(CN(C)C)C2=O)cc1 (stereo not given)
TGI (OVCAR-4 ovarian): 16.1 µM | TGI (DMS 114 small cell lung): 21.6 µM | TGI (NCI-H460 lung): 36.4 µM | TGI (KM20L2 colon): 36.8 µM | TGI (HS 578T breast): > 100 µM | TGI (M14 melanoma): 7.02 µM | TGI (SF-539 CNS): 16 µM | TGI (U251 CNS): 32.7 µM | TGI (RXF 393 renal): 13.6 µM | TGI (SF-268 CNS): 19.1 µM | TGI (SNB-19 CNS): 23.2 µM | TGI (HCC-2998 colon): 19.1 µM | TGI (SR leukemia): 6.21 µM | TGI (UACC-257 melanoma): 13.3 µM | TGI (KM12 colon): 22.1 µM | TGI (M19-MEL melanoma): 26.6 µM | TGI (SW-620 colon): 4.32 µM | TGI (EKVX NSCLC): 37.5 µM | TGI (K-562 leukemia): 7.25 µM | TGI (HL-60(TB) leukemia): 4.23 µM | TGI (SK-MEL-5 melanoma): 16.3 µM | TGI (OVCAR-5 ovarian): 30 µM | TGI (RPMI-8226 leukemia): 3.97 µM | TGI (SNB-75 CNS): 25.6 µM | TGI (SN12C renal): 32.8 µM | TGI (DU-145 prostate): 5.8 µM | TGI (NCI-H226 lung): 31.6 µM | TGI (HCT-15 colon): 6.49 µM | TGI (PC-3 prostate): 19.6 µM | TGI (OVCAR-3 ovarian): 10.6 µM | TGI (IGROV1 ovarian): 18.4 µM | TGI (MCF7 breast): 6.03 µM | TGI (LOX IMVI melanoma): 3.63 µM | TGI (HCT-116 colon): 8.27 µM | TGI (HOP-18 NSCLC): 19.9 µM | TGI (786-0 renal): 3.17 µM | TGI (XF 498 CNS): 16.3 µM | TGI (CCRF-CEM leukemia): > 25.9 µM | TGI (A549 NSCLC): 30.6 µM | TGI (NCI-H23 lung): 18.3 µM | TGI (DLD-1 colon): 12.5 µM | TGI (NCI/ADR-RES ovarian): 5.07 µM | TGI (SF-295 CNS): 32.1 µM | TGI (SNB-78 CNS): 51.9 µM | TGI (OVCAR-8 ovarian): 12.1 µM | TGI (COLO 205 colon): 10.4 µM | TGI (MALME-3M melanoma): 11.1 µM | TGI (NCI-H522 lung): 2.84 µM | TGI (MDA-MB-435): 3.63 µM | TGI (HOP-92 NSCLC): 28.2 µM | TGI (SK-MEL-2 melanoma): 17.6 µM | TGI (HOP-62 NSCLC): 33.6 µM | TGI (LXFL 529 NSCLC): 4.17 µM | TGI (TK-10 renal): 14 µM | TGI (MOLT-4 leukemia): 6.85 µM | TGI (ACHN renal): 21.3 µM | TGI (SK-OV-3 ovarian): 31.4 µM | TGI (A498 renal): 28.9 µM | TGI (SK-MEL-28 melanoma): 14.6 µM | TGI (UACC-62 melanoma): 22.6 µM | TGI (CAKI-1 renal): 5.05 µM | TGI (MDA-N): 9.09 µM | TGI (BT-549 breast): 9.27 µM | TGI (HT29 colon): 24.1 µM | TGI (UO-31 renal): 15.5 µM
